Columns and labels:
Type in all cases: cell-based
BmorOR1 [1] = target: T1, BmorOR1 (Bombyx mori, UniProt Q5WA61); experiment: two-electrode voltage clamp in Xenopus oocytes expressing BmorOR1 and BmorOrco (perfusion)
T1 construct: gene BmOR-1; full-length; with BmorOrco
T1 sequence (Q5WA61 1-430): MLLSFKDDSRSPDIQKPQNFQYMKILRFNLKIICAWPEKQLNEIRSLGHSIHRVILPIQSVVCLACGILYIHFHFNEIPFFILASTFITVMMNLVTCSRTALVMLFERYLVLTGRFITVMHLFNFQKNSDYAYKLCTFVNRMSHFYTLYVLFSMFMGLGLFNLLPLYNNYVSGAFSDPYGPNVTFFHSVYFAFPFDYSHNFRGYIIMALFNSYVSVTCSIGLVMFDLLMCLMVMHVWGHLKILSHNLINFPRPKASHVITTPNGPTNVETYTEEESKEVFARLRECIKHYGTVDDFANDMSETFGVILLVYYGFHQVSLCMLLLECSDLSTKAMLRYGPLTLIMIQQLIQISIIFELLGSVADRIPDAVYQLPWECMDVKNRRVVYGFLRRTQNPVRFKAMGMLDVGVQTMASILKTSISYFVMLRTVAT
T1 sequence (Q7YT34 1-472 partner): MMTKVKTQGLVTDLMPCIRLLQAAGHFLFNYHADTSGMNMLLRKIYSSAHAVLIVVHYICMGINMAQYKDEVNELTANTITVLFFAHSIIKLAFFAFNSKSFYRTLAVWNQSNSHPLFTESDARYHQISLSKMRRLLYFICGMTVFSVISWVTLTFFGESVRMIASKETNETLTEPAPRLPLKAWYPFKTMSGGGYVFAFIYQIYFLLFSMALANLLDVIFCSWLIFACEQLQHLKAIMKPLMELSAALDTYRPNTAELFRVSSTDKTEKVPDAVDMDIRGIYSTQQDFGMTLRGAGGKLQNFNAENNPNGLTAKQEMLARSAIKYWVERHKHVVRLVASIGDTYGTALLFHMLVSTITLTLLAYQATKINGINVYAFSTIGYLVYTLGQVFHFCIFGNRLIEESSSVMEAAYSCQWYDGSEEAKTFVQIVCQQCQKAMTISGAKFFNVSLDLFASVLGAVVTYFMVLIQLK

BmorOR1 [2] = target: T1, BmorOR1; experiment: two-electrode voltage clamp in Xenopus oocytes expressing BmorOR1 and BmorOrco (injection, source dose)
BmorOR1 [3] = target: T1, BmorOR1; experiment: two-electrode voltage clamp in Xenopus oocytes expressing BmorOR1 and BmorOrco, dose-response

Structure (SMILES) | EC50 (BmorOR1 [3]) [µM] | also measured
CCC/C=C\C=C\CCCCCCCCCO [compound 1, (10E,12Z)-hexadecadien-1-ol] | – | EC50 (BmorOR1 [1]): 0.0454 µM
CCC/C=C\C=C\CCCCCCCCC=O [bombykal] | – | EC50 (BmorOR1 [2]): 9.6 µM
CCC/C=C\C=C\CCCCC#CCCCO [compound 10] | 17 | –
CCC/C=C\C=C\CCCC/C=C\CCCO [compound 11, (4Z,10E,12Z)-hexadecatrien-1-ol] | 13 | –

Reference: publication PMC3434217, “Specificity Determinants of the Silkworm Moth Sex Pheromone” (PLoS ONE, 2012)
